Test results from US10519115B2, “Antidiabetic tricyclic compounds” (Merck Sharp & Dohme Corp., priority 2013, dated 2019).

Columns and labels:
Format in all cases: cell-based
Human GPR40 [1] = target: T1, Human GPR40 (Homo sapiens, UniProt O14842); test: Inositol Phosphate Turnover (IP1) Assay 2 (HEK cells stably expressing human GPR40, CisBio IP-One kit); parameters: expressed in transfected cells; host or cells: HEK cells stably expressing the aequorin reporter; details: HEK cells stably expressing human GPR40, 384-well
Procedure: (§1) Human and mouse GPR40 stable cell-lines were generated in CHO cells stably expressing NFAT BLA (Beta-lactamase). A human GPR40 stable cell-line was generated in HEK cells stably expressing the aequorin expressing reporter. The expression plasmids were transfected using lipofectamine (Life Technologies) following manufacturer's instructions. Stable cell-lines were generated following drug selection.
The assay was performed in 384-well format. HEK cells stably expressing human GPR40 were plated at 15,000 cells per well in growth medium (DMEM/10% fetal calf serum). Cell plates were then incubated 16 hours at 37 degrees in a 5% CO2 incubator.
Measurement of Inositol Phosphate Turnover (IP1) was performed using the CisBio IP-One kit (Part number 62IPAPEB). After the 16 hour incubation, the cells were washed with HEPES buffer and 10 ul of stimulation buffer (prepared as described in the kit) was added to each well. In a separate plate, compounds were diluted in DMSO (400-fold over the final concentration in the assay well) and 25 nl was acoustically transferred to the appropriate well in the assay cell plate. The plates were then incubated for 60 minutes at 37 degrees. 10 ul of detection buffer (also prepared as described in the IP-One kit) was added to each well and the plates were incubated for 60 minutes in the dark. The plates were then read in a Perkin Elmer EnVision or equivalent reader able to measure FRET. Fluorescent ratio of emission at 665 and 620 nm was then converted to IP1 concentration by back calculating from an IP1 standard curve prepared at the time of the assay.

Human GPR40 [2] = target: T1, Human GPR40; test: FLIPR assay (agonist-induced calcium mobilization, GPR40/CHO NFAT BLA cells); parameters: expressed in transfected cells
Procedure: as §1
FLIPR (Fluorimetric Imaging Plate Reader, Molecular Devices) assays were performed to measure agonist-induced calcium mobilization of the stable clones. For the FLIPR assay, one day before assay, GPR40/CHO NFAT BLA cells were seeded into black-wall-clear-bottom 384-well plates (Costar) at 1.4×10e4 cells/20 μL medium/well. The cells were incubated with 20 μl/well of the assay buffer (HBSS, 0.1% BSA, 20 mM HEPES, 2.5 mM probenecid, pH 7.4) containing 8 μM fluo-4, AM, 0.08% pluronic acid at room temperature for 100 minutes. Fluorescence output was measured using FLIPR. Compounds were dissolved in DMSO and diluted to desired concentrations with assay buffer. 13.3 μL/well of compound solution was added.

Human GPR40 [3] = target: T1, Human GPR40; test: Inositol Phosphate Turnover Assay 1 (HEK cells stably expressing human GPR40); parameters: expressed in transfected cells; host or cells: HEK cells stably expressing the aequorin reporter; details: HEK cells stably expressing human GPR40, 96-well, 3H-inositol; read-out: Human GPR40 IP1 Assay 1, EC50
Procedure: as §1
The assay was performed in 96-well format. HEK cells stably expressing human GPR40 were plated to be 60-80% confluent within 72 h. After 72 h, the plates were aspirated and the cells washed with inositol-free DMEM (ICN). The wash media was replaced with 150 μL of 3H-inositol labeling media (inositol-free media containing 0.4% human albumin or 0.4% mouse albumin, 1× pen/strep antibiotics, glutamine, 25 mM HEPES to which was added 3H-myo-inositol NEN #NET114A 1 mCi/mL, 25 Ci/mmol diluted 1:150 in loading media with a final specific radioactivity of 1 μCi/150 μL). Alternatively, the human and mouse albumin can be added after the overnight labeling step before the addition of LiCl.
The assay was typically run the next day after 18 h labeling. On the day of the assay, 5 μL of 300 mM LiCl was added to all wells and incubated at 37 degrees for 20 min. 0.75 μL of 200× compounds were added and incubated with the cells for 60 min at 37 degrees. The media was then aspirated off and the assay terminated with the addition of 60 μL 10 mM formic acid. The cells were lysed for 60 min at room temperature. 15-30 μL of lysate was mixed with 70 μL/1 mg YSi SPA beads (Amersham) in clear bottom Isoplates. The plates were shaken for 2 h at room temperature. Beads were allowed to settle and the plates were counted in the Wallac Microbeta.

T1 sequence (O14842 whole entry): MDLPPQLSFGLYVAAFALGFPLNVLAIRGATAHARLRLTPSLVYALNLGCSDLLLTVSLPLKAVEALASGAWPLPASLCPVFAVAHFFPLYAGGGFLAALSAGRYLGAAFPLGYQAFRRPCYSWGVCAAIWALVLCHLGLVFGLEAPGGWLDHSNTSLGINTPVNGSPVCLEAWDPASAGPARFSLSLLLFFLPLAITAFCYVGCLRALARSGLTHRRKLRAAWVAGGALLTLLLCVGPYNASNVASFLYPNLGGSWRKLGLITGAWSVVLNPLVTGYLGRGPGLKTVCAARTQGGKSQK

Compound	EC50 (Human GPR40 [1])	EC50 (Human GPR40 [2])	EC50 (Human GPR40 [3])
C[C@]1(O)C[C@@H](COc2ccc(-c3cc(COc4cc5c(cn4)[C@H]4[C@@H](C5)[C@@H]4C(=O)O)c(F)cc3C(F)(F)F)cc2F)C1 [Compound-1, (5aR,6S,6aS)-3-{[3′,4-difluoro-4′-(((1s,3s)-3-hydroxy-3-methylcyclobutyl)methoxy)-6-(trifluoromethyl)-[1,1′-biphenyl]-3-yl]methoxy}-5,5a,6,6a-tetrahydrocyclopropa[4,5]cyclopenta[1,2-c]pyridine-6-carboxylic acid]	–	7 nM	11 nM
C[C@]1(O)C[C@@H](COc2c(F)cc(-c3cc(COc4cc5c(cn4)[C@H]4[C@@H](C5)[C@@H]4C(=O)O)c(F)cc3C(F)(F)F)cc2F)C1 [Compound-2, (5aR,6S,6aS)-3-{[3′,4,5′-trifluoro-4′-(((1s,3s)-3-hydroxy-3-methylcyclobutyl)methoxy)-6-(trifluoromethyl)-[1,1′-biphenyl]-3-yl]methoxy}-5,5a,6,6a-tetrahydrocyclopropa[4,5]cyclopenta[1,2-c]pyridine-6-carboxylic acid]	–	5.8 nM	6.9 nM
C[C@]1(O)CC[C@H](Oc2c(F)cc(-c3cc(COc4cc5c(cn4)[C@H]4[C@@H](C5)[C@@H]4C(=O)O)c(F)cc3C(F)(F)F)cc2F)CC1 [Compound-3, (5aR,6S,6aS)-3-{[3′,4,5′-trifluoro-4′-(((1r,4r)-4-hydroxy-4-methylcyclohexyl)oxy)-6-(trifluoromethyl)-[1,1′-biphenyl]-3-yl]methoxy}-5,5a,6,6a-tetrahydrocyclopropa[4,5]cyclopenta[1,2-c]pyridine-6-carboxylic acid]	–	3.7 nM	14 nM
N#Cc1ccc(-c2ccc(-c3cc(COc4cc5c(cn4)[C@H]4[C@@H](C5)[C@@H]4C(=O)O)c(F)cc3C(F)(F)F)cc2)cc1 [Compound-9, (5aR,6S,6aS)-3-((4″-cyano-4-fluoro-6-(trifluoromethyl)-[1,1′:4′,1″-terphenyl]-3-yl)methoxy)-5,5a,6,6a-tetrahydrocyclopropa[4,5] cyclopenta[1,2-c]pyridine-6-carboxylic acid]	–	–	8.9 nM
CS(=O)(=O)c1ccc(-c2ccc(-c3cc(COc4cc5c(cn4)[C@H]4[C@@H](C5)[C@@H]4C(=O)O)c(F)cc3C(F)(F)F)cc2)cc1 [Compound-10, (5aR,6S,6aS)-3-((4-fluoro-4″-(methylsulfonyl)-6-(tri-fluoromethyl)-[1,1′;4′,1″- terphenyl]-3-yl)methoxy)-5,5a,6,6a-tetrahydrocyclo-propa[4,5]cyclpenta [1,2-c]pyridine-6-carboxylic acid]	–	–	2.9 nM
Cc1nc(OC[C@H]2C[C@@](C)(O)C2)ccc1-c1cc(COc2cc3c(cn2)[C@H]2[C@@H](C3)[C@@H]2C(=O)O)c(F)cc1C(F)(F)F [Compound-14, (5 aR,6S,6aS)-3-((2-fluoro-5-(6-(((1s,3s)-3-hydroxy-3-methylcyclobutyl)methoxy)-2-methylpyridin-3-yl)-4-(trifluoromethyl)benzyl)oxy)-5,5a,6,6a-tetrahydrocyclopropa-[4,5]cyclopenta[1,2-c]pyridine-6-carboxylic acid]	1.2 nM	–	6.3 nM
Cc1cc(O[C@H]2C[C@H](S(C)(=O)=O)C2)cc(C)c1-c1cc(COc2cc3c(cn2)[C@H]2[C@@H](C3)[C@@H]2C(=O)O)c(F)cc1F [Compound-15]	1.2 nM	–	6.7 nM
Cc1cc(-c2nnn(CC(C)(C)O)n2)cc(C)c1-c1cc(COc2cc3c(cn2)[C@H]2[C@@H](C3)[C@@H]2C(=O)O)c(F)cc1F [Compound-16, (5aR,6S,6aS)-3-((4,6-difluoro-4′-(2-(2-hydroxy-2-methylpropyl)-2H-tetrazol-5-yl)-2′,6′-dimethyl-[1,1′-biphenyl]-3-yl)methoxy)-5,5a,6,6a-tetrahydrocyclopropa[4,5]cyclopenta[1,2-c]pyridine-6-carboxylic acid]	1 nM	–	9.4 nM
Cc1cc(-c2ncn(CC(C)(C)O)n2)cc(C)c1-c1cc(COc2cc3c(cn2)[C@H]2[C@@H](C3)[C@@H]2C(=O)O)c(F)cc1F [Compound-17, (5aR,6S,6aS)-3-((4,6-difluoro-4′-(1-(2-hydroxy-2-methylpropyl)-1H-1,2,4-triazol-3-yl)-2′,6′-dimethyl-[1,1′-biphenyl]-3-yl)methoxy)-5,5a,6,6a-tetrahydrocyclopropa[4,5]cyclopenta[1,2-c]pyridine-6-carboxylic acid]	0.8 nM	–	–
Cc1nc(N2Cc3cn(CC(C)(C)O)nc3C2)ccc1-c1cc(COc2cc3c(cn2)[C@H]2[C@@H](C3)[C@@H]2C(=O)O)c(F)cc1C(F)(F)F [Compound-18, (5aR,6S,6aS)-3-((2-fluoro-5-(6-(2-(2-hydroxy-2-methylpropyl)pyrrolo[3,4-c]pyrazol-5(2H,4H,6H)-yl)-2-methylpyridin-3-yl)-4-(trifluoromethyl)benzyl)oxy)-5,5a,6,6a-tetrahydrocyclopropa[4,5]cyclopenta[1,2-c]pyridine-6-carboxylic acid]	1 nM	–	7.6 nM
Cc1nc(OC2CC(S(C)(=O)=O)C2)ccc1-c1cc(COc2cc3c(cn2)[C@H]2[C@@H](C3)[C@@H]2C(=O)O)c(F)cc1C(F)(F)F (stereo partly shown) [Compound-19]	2.1 nM	–	–

The remaining lines, values ahead:

EC50 (Human GPR40 [1])	EC50 (Human GPR40 [2])	EC50 (Human GPR40 [3])	Compound
1 nM	–	–	Cc1cc(OC2CC(C(C)(O)CO)C2)cc(C)c1-c1cc(COc2cc3c(cn2)C2C(C3)C2C(=O)O)c(F)cc1F (single isomer, unassigned) [Compound-21]
0.7 nM	–	–	Cc1cc(OC2CC(C(C)(O)CO)C2)cc(C)c1-c1cc(COc2cc3c(cn2)C2C(C3)C2C(=O)O)c(F)cc1F (single isomer, unassigned) [Compound-22]
1 nM	–	–	O=C(O)[C@H]1[C@@H]2Cc3cc(OCc4cc(-c5ccc(OC[C@H]6C[C@@](O)(CO)C6)cc5Cl)c(F)cc4F)ncc3[C@@H]21 (single isomer, unassigned) [Compound-23]
1.3 nM	–	–	O=C(O)[C@H]1[C@@H]2Cc3cc(OCc4cc(-c5ccc(OC[C@H]6C[C@](O)(CO)C6)cc5Cl)c(F)cc4F)ncc3[C@@H]21 (single isomer, unassigned) [Compound-24]
1.9 nM	–	–	Cc1cc(OC[C@H]2C[C@@](O)(CO)C2)cc(C)c1-c1cc(COc2cc3c(cn2)[C@H]2[C@@H](C3)[C@@H]2C(=O)O)c(F)cc1F (single isomer, unassigned) [Compound-25]
1.6 nM	–	–	Cc1cc(OC[C@H]2C[C@](O)(CO)C2)cc(C)c1-c1cc(COc2cc3c(cn2)[C@H]2[C@@H](C3)[C@@H]2C(=O)O)c(F)cc1F (single isomer, unassigned) [Compound-26]
3.1 nM	–	–	Cc1cc(OC[C@H]2C[C@](C)(O)[C@](C)(O)C2)cc(C)c1-c1cc(COc2cc3c(cn2)[C@H]2[C@@H](C3)[C@@H]2C(=O)O)c(F)cc1F [Compound-20, (5aR,6S,6aS)-3-((4′-(((1s,3R,4S)-3,4-dihydroxy-3,4-dimethylcyclopentyl)methoxy)-4,6-difluoro-2′,6′-dimethyl-[1,1′-biphenyl]-3-yl)methoxy)-5,5a,6,6a-tetrahydrocyclopropa-[4,5]cyclopenta[1,2-c]pyridine-6-carboxylic acid]
